This is an account of results in patent publication US11993599B2, “Therapeutic compounds” (Genentech, Inc., priority 2021, dated 2024).

Molecules are shown by their SMILES.

In assay [1] the target is T1, BRG1 (Homo sapiens, UniProt P51532).
T1 construct: either BRM primary antibody (Cell signaling Cat #11966) or BRG primary antibody (Abcam, ab 110641); endogenous in cells; host or cells: SW1573
The assay is described as follows: Immunofluorescence assay for BRG1 degradation in SW1573 cells. Format: cell-based. The note with it: 20 hours incubation; for DC50: immunofluorescence mean nuclear signal, read-out: BRG1 IF Degradation IC50; for Dmax: SW1573, 20 h, read-out: BRG1 IF Degradation Sinf (%); for Dmax / BRG1 IF Degradation Sinf (%): normalized to a known degrader control. The gist of the method: (§1)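 Imaging-based readout in SW1573: 20 h dosing, formaldehyde fixation, antibody staining for either remodeler, nuclear intensity per cell quantified. Values normalized to control degrader; floating-maximum fit.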

Assay [2] deals with BRM (Homo sapiens, UniProt P51531). Nature of the assay: Immunofluorescence assay for BRM degradation in SW1573 cells. It counts as cell-based. The arrangement: treated overnight at 4° C. with either BRM primary antibody (Cell signaling Cat #11966) or BRG primary antibody; endogenous in cells; host or cells: SW1573. The following applies: 20 hours incubation; for DC50: immunofluorescence mean nuclear signal, read-out: BRM IF Degradation IC50; for BRM IF Degradation Sinf (%): normalized to a known degrader control. An outline of the steps:
as §1

T1 sequence (P51532 whole entry): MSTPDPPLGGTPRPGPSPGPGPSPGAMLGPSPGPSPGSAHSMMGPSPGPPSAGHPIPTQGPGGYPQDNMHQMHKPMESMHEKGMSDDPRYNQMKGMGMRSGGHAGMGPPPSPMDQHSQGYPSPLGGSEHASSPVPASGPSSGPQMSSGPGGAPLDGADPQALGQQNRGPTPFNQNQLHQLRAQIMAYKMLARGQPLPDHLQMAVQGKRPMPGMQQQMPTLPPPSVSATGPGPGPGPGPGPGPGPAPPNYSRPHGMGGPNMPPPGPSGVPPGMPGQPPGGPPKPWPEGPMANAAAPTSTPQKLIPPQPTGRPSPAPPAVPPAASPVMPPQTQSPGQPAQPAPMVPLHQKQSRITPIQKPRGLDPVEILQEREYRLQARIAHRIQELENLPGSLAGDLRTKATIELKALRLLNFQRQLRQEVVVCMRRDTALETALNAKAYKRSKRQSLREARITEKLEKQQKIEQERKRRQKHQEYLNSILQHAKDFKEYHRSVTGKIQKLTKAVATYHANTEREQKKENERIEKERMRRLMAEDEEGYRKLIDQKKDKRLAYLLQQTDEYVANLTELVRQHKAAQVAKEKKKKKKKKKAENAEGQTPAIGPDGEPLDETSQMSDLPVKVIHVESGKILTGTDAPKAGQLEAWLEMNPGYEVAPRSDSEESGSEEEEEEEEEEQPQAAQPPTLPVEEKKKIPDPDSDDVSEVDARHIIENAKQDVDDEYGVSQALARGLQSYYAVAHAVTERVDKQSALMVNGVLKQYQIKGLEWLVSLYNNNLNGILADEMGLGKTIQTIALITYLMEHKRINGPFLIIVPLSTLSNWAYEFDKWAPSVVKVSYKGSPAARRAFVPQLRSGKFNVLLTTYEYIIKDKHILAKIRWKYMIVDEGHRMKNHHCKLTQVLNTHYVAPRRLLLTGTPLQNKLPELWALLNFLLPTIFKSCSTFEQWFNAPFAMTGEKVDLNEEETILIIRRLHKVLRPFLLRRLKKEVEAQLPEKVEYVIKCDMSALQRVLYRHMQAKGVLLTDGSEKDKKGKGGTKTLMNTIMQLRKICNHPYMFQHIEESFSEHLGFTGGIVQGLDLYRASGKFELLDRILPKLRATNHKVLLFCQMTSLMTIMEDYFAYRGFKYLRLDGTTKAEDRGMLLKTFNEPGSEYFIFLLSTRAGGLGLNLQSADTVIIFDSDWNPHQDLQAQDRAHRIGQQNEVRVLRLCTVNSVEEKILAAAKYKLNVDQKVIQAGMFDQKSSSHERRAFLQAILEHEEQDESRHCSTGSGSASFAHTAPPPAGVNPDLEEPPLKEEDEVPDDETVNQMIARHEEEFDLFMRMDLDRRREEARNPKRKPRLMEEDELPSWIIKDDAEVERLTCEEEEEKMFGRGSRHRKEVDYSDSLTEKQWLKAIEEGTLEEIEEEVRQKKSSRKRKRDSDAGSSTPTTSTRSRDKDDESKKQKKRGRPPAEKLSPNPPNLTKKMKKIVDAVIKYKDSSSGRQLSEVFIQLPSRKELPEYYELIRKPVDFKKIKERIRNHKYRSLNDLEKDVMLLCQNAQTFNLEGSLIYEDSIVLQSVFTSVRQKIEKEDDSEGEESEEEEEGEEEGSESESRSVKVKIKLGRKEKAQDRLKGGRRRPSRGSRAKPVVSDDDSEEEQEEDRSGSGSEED
Chain of BRM (P51531 whole entry): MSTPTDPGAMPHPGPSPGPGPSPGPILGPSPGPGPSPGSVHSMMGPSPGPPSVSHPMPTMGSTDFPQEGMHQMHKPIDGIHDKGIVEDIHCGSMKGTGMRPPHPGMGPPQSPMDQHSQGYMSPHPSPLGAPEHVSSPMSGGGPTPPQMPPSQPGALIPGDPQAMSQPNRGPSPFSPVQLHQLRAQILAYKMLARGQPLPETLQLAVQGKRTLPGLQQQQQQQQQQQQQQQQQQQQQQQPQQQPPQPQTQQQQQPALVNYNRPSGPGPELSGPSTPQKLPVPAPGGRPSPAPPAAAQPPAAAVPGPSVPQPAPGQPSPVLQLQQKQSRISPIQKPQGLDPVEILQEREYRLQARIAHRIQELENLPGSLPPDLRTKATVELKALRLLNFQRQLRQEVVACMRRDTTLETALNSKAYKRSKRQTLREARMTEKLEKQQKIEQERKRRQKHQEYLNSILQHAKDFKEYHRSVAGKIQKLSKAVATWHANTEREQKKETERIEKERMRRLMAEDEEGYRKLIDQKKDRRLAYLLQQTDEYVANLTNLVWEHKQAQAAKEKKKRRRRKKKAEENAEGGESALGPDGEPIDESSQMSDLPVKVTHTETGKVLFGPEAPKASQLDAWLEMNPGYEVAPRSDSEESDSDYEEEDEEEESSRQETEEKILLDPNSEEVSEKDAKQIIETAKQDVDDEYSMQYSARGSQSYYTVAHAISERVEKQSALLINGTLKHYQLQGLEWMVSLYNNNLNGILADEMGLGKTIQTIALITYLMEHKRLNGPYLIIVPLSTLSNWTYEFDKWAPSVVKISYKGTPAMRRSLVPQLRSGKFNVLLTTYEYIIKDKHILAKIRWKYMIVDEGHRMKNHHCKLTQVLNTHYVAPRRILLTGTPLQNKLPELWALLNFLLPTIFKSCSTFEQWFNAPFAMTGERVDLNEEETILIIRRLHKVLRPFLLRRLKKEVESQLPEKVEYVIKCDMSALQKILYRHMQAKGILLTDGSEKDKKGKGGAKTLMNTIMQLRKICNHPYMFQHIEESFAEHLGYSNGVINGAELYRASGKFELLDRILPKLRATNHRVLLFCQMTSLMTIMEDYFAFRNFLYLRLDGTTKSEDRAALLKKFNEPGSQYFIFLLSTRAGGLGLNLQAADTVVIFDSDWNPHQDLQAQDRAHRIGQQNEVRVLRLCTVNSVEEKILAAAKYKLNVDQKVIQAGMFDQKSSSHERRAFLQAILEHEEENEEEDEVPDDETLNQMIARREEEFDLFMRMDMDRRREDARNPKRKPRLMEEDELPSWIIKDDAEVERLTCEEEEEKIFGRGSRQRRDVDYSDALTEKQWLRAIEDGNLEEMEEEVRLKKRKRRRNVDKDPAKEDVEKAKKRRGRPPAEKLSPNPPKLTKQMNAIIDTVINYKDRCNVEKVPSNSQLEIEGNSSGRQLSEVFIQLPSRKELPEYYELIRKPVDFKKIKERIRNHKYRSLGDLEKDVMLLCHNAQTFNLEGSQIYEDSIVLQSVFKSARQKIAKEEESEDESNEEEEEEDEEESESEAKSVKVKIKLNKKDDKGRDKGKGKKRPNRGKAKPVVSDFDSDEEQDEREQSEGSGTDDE

On to `CN1C[C@@H]2C[C@H]1CN2CC#Cc1cc(N2C3CCC2CN(c2cc(-c4ccccc4O)nnc2N)C3)ccn1` [Compound 164, 2-[6-amino-5-[8-[2-[3-[(1S,4S)-5-methyl-2,5-diazabicyclo[2.2.1]heptan-2-yl]prop-1-ynyl]-4-pyridyl]-3,8-diazabicyclo[3.2.1]octan-3-yl]pyridazin-3-yl]phenol], for which, in assay [1], the DC50 is greater than 100 nM and the Dmax lay within 0 to 30%. In assay [2], the DC50 is 10 to 100 nM and the “BRM IF Degradation Sinf (%)” value is “E (E indicates −30%-−70%)”.

`Nc1nnc(-c2ccccc2O)cc1N1CC2CCC(C1)N2c1ccnc(C#CCN2CCC[C@]23CCNC3)c1` [Compound 165, 2-[6-amino-5-[8-[2-[3-[(5R)-1,7-diazaspiro[4.4]nonan-1-yl]prop-1-ynyl]-4-pyridyl]-3,8-diazabicyclo[3.2.1]octan-3-yl]pyridazin-3-yl]phenol]: the DC50 in assay [1] and in assay [2] was greater than 100 nM in each case. Besides, the “BRM IF Degradation Sinf (%)” value in assay [2] is “E (E indicates −30%-−70%)”.

Take `Nc1nnc(-c2ccccc2O)cc1N1CC2CCC(C1)N2c1ccnc(C#CCN2CCCCC2)c1` [Compound 166, 2-(6-amino-5-(8-(2-(3-(piperidin-1-yl)prop-1-yn-1-yl)pyridin-4-yl)-3,8-diazabicyclo[3.2.1]octan-3-yl)pyridazin-3-yl)phenol]: the DC50 in assay [1] is greater than 100 nM; in assay [2] it was less than 10 nM. Further, the “BRM IF Degradation Sinf (%)” value in assay [2] is listed as “E (E indicates −30%-−70%)”.

`Nc1nnc(-c2ccccc2O)cc1N1CC2CCC(C1)N2c1ccnc(C#CCN2CCC23CCOC3)c1` (stereo not shown) [Compound 167, 2-[6-amino-5-[8-[2-[3-(7-oxa-1-azaspiro[3.4]octan-1-yl)prop-1-ynyl]-4-pyridyl]-3,8-diazabicyclo[3.2.1]octan-3-yl]pyridazin-3-yl]phenol]: in assay [1], the DC50 is less than 10 nM and the “BRG1 IF Degradation Sinf (%)” value is reported as “F (F indicates −71%-−120%)”. Moreover, in assay [2], the DC50 is less than 10 nM and the “BRM IF Degradation Sinf (%)” value is reported as “F (F indicates −71%-−120%)”.

In the case of `Nc1nnc(-c2ccccc2O)cc1N1CC2CCC(C1)N2c1ccnc(C#CCN2CC(O)C2)c1` [Compound 168, 1-[3-[4-[3-[3-amino-6-(2-hydroxyphenyl)pyridazin-4-yl]-3,8-diazabicyclo[3.2.1]octan-8-yl]-2-pyridyl]prop-2-ynyl]azetidin-3-ol], in assay [1], the DC50 is 10 to 100 nM and the “BRG1 IF Degradation Sinf (%)” value is “E (E indicates −30%-−70%)”. Besides, in assay [2], the DC50 lay in the range of 10 to 100 nM and the “BRM IF Degradation Sinf (%)” value is listed as “F (F indicates −71%-−120%)”.

In the case of `COC1(C)CN(CC#Cc2cc(N3C4CCC3CN(c3cc(-c5ccccc5O)nnc3N)C4)ccn2)C1` [Compound 169, 2-[6-amino-5-[8-[2-[3-(3-methoxy-3-methyl-azetidin-1-yl)prop-1-ynyl]-4-pyridyl]-3,8-diazabicyclo[3.2.1]octan-3-yl]pyridazin-3-yl]phenol], in assay [1], the DC50 lay in the range of 10 to 100 nM and the Dmax was in the range of 30 to 70%. Also, in assay [2], the DC50 is less than 10 nM and the “BRM IF Degradation Sinf (%)” value is reported as “E (E indicates −30%-−70%)”.

For the compound `CC1(CO)CN(CC#Cc2cc(N3C4CCC3CN(c3cc(-c5ccccc5O)nnc3N)C4)ccn2)C1` [Compound 170, 2-[6-amino-5-[8-[2-[3-[3-(hydroxymethyl)-3-methyl-azetidin-1-yl]prop-1-ynyl]-4-pyridyl]-3,8-diazabicyclo[3.2.1]octan-3-yl]pyridazin-3-yl]phenol], in assay [1], the DC50 is greater than 100 nM and the Dmax is 30 to 70%. Besides, in assay [2], the DC50 was in the range of 10 to 100 nM and the “BRM IF Degradation Sinf (%)” value was “E (E indicates −30%-−70%)”.

Take `Nc1nnc(-c2ccccc2O)cc1N1CC2CCC(C1)N2c1ccnc(C#CCN2CC(F)(CO)C2)c1` [Compound 171, 2-[6-amino-5-[8-[2-[3-[3-fluoro-3-(hydroxymethyl)azetidin-1-yl]prop-1-ynyl]-4-pyridyl]-3,8-diazabicyclo[3.2.1]octan-3-yl]pyridazin-3-yl]phenol]: the DC50 in assay [1] is greater than 100 nM. In assay [2], the DC50 was greater than 100 nM and the “BRM IF Degradation Sinf (%)” value is recorded as “E (E indicates −30%-−70%)”.

Regarding `CC1CN(CC#Cc2cc(N3C4CCC3CN(c3cc(-c5ccccc5O)nnc3N)C4)ccn2)C1` [Compound 172, 2-[6-amino-5-[8-[2-[3-(3-methylazetidin-1-yl)prop-1-ynyl]-4-pyridyl]-3,8-diazabicyclo[3.2.1]octan-3-yl]pyridazin-3-yl]phenol], in assay [1], the DC50 lay in the range of 10 to 100 nM and the Dmax is 71 to 120%. Further, in assay [2], the DC50 is less than 10 nM and the “BRM IF Degradation Sinf (%)” value is given as “E (E indicates −30%-−70%)”.

As to `CC1(F)CN(CC#Cc2cc(N3C4CCC3CN(c3cc(-c5ccccc5O)nnc3N)C4)ccn2)C1` [Compound 173, 2-[6-amino-5-[8-[2-[3-(3-fluoro-3-methyl-azetidin-1-yl)prop-1-ynyl]-4-pyridyl]-3,8-diazabicyclo[3.2.1]octan-3-yl]pyridazin-3-yl]phenol], in assay [1], the DC50 lay in the range of 10 to 100 nM and the Dmax is 30 to 70%. In assay [2], the DC50 was in the range of 10 to 100 nM and the “BRM IF Degradation Sinf (%)” value is listed as “F (F indicates −71%-−120%)”.

Take `COC1CN(CC#Cc2cc(N3C4CCC3CN(c3cc(-c5ccccc5O)nnc3N)C4)ccn2)C1` [Compound 174, 2-[6-amino-5-[8-[2-[3-(3-methoxyazetidin-1-yl)prop-1-ynyl]-4-pyridyl]-3,8-diazabicyclo[3.2.1]octan-3-yl]pyridazin-3-yl]phenol]: in assay [1], the DC50 lay in the range of 10 to 100 nM and the Dmax fell in the range of 30 to 70%. For the same compound, in assay [2], the DC50 lay within 10 to 100 nM and the “BRM IF Degradation Sinf (%)” value is given as “F (F indicates −71%-−120%)”.

For `Nc1nnc(-c2ccccc2O)cc1N1CC2CCC(C1)N2c1ccnc(C#CCN2CC3(CCCOC3)C2)c1` [Compound 175, 2-[6-amino-5-[8-[2-[3-(6-oxa-2-azaspiro[3.5]nonan-2-yl)prop-1-ynyl]-4-pyridyl]-3,8-diazabicyclo[3.2.1]octan-3-yl]pyridazin-3-yl]phenol], in assay [1], the DC50 was less than 10 nM and the Dmax was in the range of 30 to 70%. In assay [2], the DC50 is less than 10 nM and the “BRM IF Degradation Sinf (%)” value is recorded as “E (E indicates −30%-−70%)”.

On to `COC(=O)C1CCN1CC#Cc1cc(N2C3CCC2CN(c2cc(-c4ccccc4O)nnc2N)C3)ccn1` (stereo not shown) [Compound 176, methyl 1-[3-[4-[3-[3-amino-6-(2-hydroxyphenyl)pyridazin-4-yl]-3,8-diazabicyclo[3.2.1]octan-8-yl]-2-pyridyl]prop-2-ynyl]azetidine-2-carboxylate], for which the DC50 is greater than 100 nM in assay [1] and 10 to 100 nM in assay [2]. The “BRM IF Degradation Sinf (%)” value in assay [2] is reported as “E (E indicates −30%-−70%)”.

As for `Nc1nnc(-c2ccccc2O)cc1N1CC2CCC(C1)N2c1ccnc(C#CCN2CC3(C2)C(CF)CCS3(=O)=O)c1` (stereo not shown) [Compound 177, 2-[6-amino-5-[8-[2-[3-[8-(fluoromethyl)-5,5-dioxo-5lambda6-thia-2-azaspiro[3.4]octan-2-yl]prop-1-ynyl]-4-pyridyl]-3,8-diazabicyclo[3.2.1]octan-3-yl]pyridazin-3-yl]phenol], in assay [1], the DC50 lay in the range of 10 to 100 nM and the Dmax fell in the range of 30 to 70%. Further, in assay [2], the DC50 was 10 to 100 nM and the “BRM IF Degradation Sinf (%)” value is given as “E (E indicates −30%-−70%)”.
